Test results as given in patent US20140357487A1, “PLANTS HAVING INCREASED TOLERANCE TO HERBICIDES” (BASF SE, priority 2011, published 2014).

What was measured:
Poa HPPD = experiment: HPPD activity assay, Poa HPPD; format: biochemical; settings: normalized on Arabidopsis wild-type HPPD
Experimental: HPPD produces homogentisic acid and CO2 from 4-hydroxyphenylpyruvate (4-HPP) and O2. The activity assay for HPPD is based on the analysis of homogentisic acid by reversed phase HPLC.
The assay mixture can contain 150 mM potassium phosphate buffer pH 7.0, 50 mM L-ascorbic acid, 1 μM FeSO4 and 7 μg of purified enzyme in a total volume of 1 ml.
Inhibitors are dissolved in DMSO (dimethylsulfoxide) to a concentration of 20 mM or 0.5 mM, respectively. From this stock solution serial five-fold dilutions are prepared in DMSO, which are used in the assay. The respective inhibitor solution accounts for 1% of the assay volume. Thus, final inhibitor concentrations range from 200 μM to 2.5 nM or from 5 μM to 63 pM, respectively. After a preincubation of 30 min the reaction is started by adding 4-HPP to a final concentration of 0.1 mM. The reaction is allowed to proceed for 120 min at room temperature. The reaction is stopped by addition of 100 μl of 4.5 M phosphoric acid.
Activities are normalized by setting the uninhibited enzyme activity to 100%. IC50 values are calculated using non-linear regression.
The assay mixture can contain 150 mM potassium phosphate buffer pH 7.0, 50 mM L-ascorbic acid, 100 μM Catalase (Sigma-Aldrich), 1 μM FeSO4 and 0.2 units of purified HPPD enzyme in a total volume of 505 μl. […]
Inhibitors are dissolved in DMSO (dimethylsulfoxide) to a concentration of 0.5 mM. […] IC50 values are calculated using non-linear regression.
Using methods which are described in the above examples or well known in the art, purified, recombinant wildtype HPPD enzymes are characterized with respect to their kinetic properties and sensitivity towards HPPD inhibiting herbicides. Apparent michaelis constants (Km) and maximal reaction velocities (Vmax) are calculated by non-linear regression with the software GraphPad Prism 5 (GraphPad Software, La Jolla, USA) using a substrate inhibition model. […] Weighted means (by standard error) of Km and […] values are calculated from at least three independent experiments. […]

[1] = tested on: transgenic soybean plants, Arabidopsis P336A E363Q I393L L385V, event SDS-9999; experiment: Greenhouse testing of transgenic soybean plants, Arabidopsis P336A E363Q I393L L385V; format: in vivo, Glycine max; settings: soybean SDS-9999, 5 days after herbicide treatment, average of 8 T1
Description: (§1) Various methods for the production of stably transformed plants are well known in the art. Coumarone-derivative herbicide tolerant soybean (Glycine max) or corn (Zea mays) plants can be produced by a method described by Olhoft et al. (US patent 2009/0049567). Briefly, HPPD or HST encoding polynucleotides are cloned into a binary vector using standard cloning techniques as described by Sambrook et al. (Molecular cloning (2001) Cold Spring Harbor Laboratory Press). The final vector construct contains an HPPD or HST encoding sequence flanked by a promoter sequence (e.g. the ubiquitin promoter (PcUbi) sequence) and a terminator sequence (e.g. the nopaline synthase terminator (NOS) sequence) and a resistance marker gene cassette (e.g. AHAS) (FIG. 2). Optionally, the HPPD or HST gene can provide the means of selection. Agrobacterium-mediated transformation is used to introduce the DNA into soybean's axillary meristem cells at the primary node of seedling explants. After inoculation and co-cultivation with Agrobacteria, the explants are transferred to shoot induction medium without selection for one week. The explants are subsequently transferred to shoot induction medium with 1-3 μM imazapyr (Arsenal) for 3 weeks to select for transformed cells. Explants with healthy callus/shoot pads at the primary node are then transferred to shoot elongation medium containing 1-3 μM imazapyr until a shoot elongates or the explant dies. After regeneration, transformants are transplanted to soil in small pots, placed in growth chambers (16 hr day/8 hr night; 25° C. day/23° C. night; 65% relative humidity; 130-150 mE m−2 s−1) and subsequently tested for the presence of the T-DNA via Taqman analysis. After a few weeks, healthy, transgenic positive, single copy events are transplanted to larger pots and allowed to grow in the growth chamber. Transformation of corn plants is done by a method described by McElver and Singh (WO 2008/124495). Plant transformation vector constructs containing HPPD or HST sequences are introduced into maize immature embryos via Agrobacterium-mediated transformation. Transformed cells are selected in selection media supplemented with 0.5-1.5 μM imazethapyr for 3-4 weeks. Transgenic plantlets are regenerated on plant regeneration media and rooted afterwards. Transgenic plantlets are subjected to TaqMan analysis for the presence of the transgene before being transplanted to potting mixture and grown to maturity in greenhouse. Arabidopsis thaliana is transformed with HPPD or HST sequences by floral dip method as described by McElver and Singh (WO 2008/124495). Transgenic Arabidopsis plants are subjected to Tag Man analysis for analysis of the number of integration loci. Transformation of Oryza sativa (rice) are done by protoplast transformation as described by Peng et al. (U.S. Pat. No. 6,653,529)
(§2) Transgenic plants expressing heterologous HPPD or HST enzymes are tested for tolerance against coumarone-derivative herbicides in greenhouse experiments.
(§3) For post emergence treatment, the test plants are first grown to a height of 3 to 15 cm, depending on the plant habit, and only then treated with the herbicides. For this purpose, the test plants are either sown directly and grown in the same containers, or they are first grown separately and transplanted into the test containers a few days prior to treatment.
(§4) Depending on the species, the plants are kept at 10-25° C. or 20-35° C. The test period extends over 3 weeks. During this time, the plants are tended and their response to the individual treatments is evaluated. […] Tolerance to coumarone-derivative herbicides can also be assessed in Arabidopsis. In this case transgenic Arabidopsis thaliana plants are assayed for improved tolerance to coumarone-derivative herbicides in 48-well plates. Seeds are surface sterilized by stirring for 5 min in ethanol+water (70+30 by volume), rinsing one time with ethanol+water (70+30 by volume) and two times with a sterile, deionized water. […]

[2] = tested on: transgenic soybean plants, Glycine Max HPPD, event SDS-10298; experiment: Greenhouse testing of transgenic soybean plants, Glycine Max HPPD; format: in vivo; settings: soybean SDS-10298, 5 days after herbicide treatment, average of 8 T1
Description: as §1, §2, §3, §4

Structure (SMILES)	Normalized tolerance index TI (Poa HPPD)	Injury evaluation, scale of 1-100, bleaching phenotype ([1]; 2.5 g/ha)	Injury evaluation, scale of 1-100, bleaching phenotype ([1]; 10 g/ha)	Injury evaluation, scale of 1-100, bleaching phenotype ([1]; 40 g/ha)	Injury evaluation, scale of 1-100, bleaching phenotype ([2]; 2.5 g/ha)	Injury evaluation, scale of 1-100, bleaching phenotype ([2]; 10 g/ha)	Injury evaluation, scale of 1-100, bleaching phenotype ([2]; 40 g/ha)	Injury evaluation, scale of 1-100, bleaching phenotype ([1]; 6.25 g/ha)	Injury evaluation, scale of 1-100, bleaching phenotype ([1]; 25 g/ha)	Injury evaluation, scale of 1-100, bleaching phenotype ([1]; 100 g/ha)	Injury evaluation, scale of 1-100, bleaching phenotype ([2]; 6.25 g/ha)	Injury evaluation, scale of 1-100, bleaching phenotype ([2]; 25 g/ha)	Injury evaluation, scale of 1-100, bleaching phenotype ([2]; 100 g/ha)
CC1(C)c2cccnc2C(O)=C(c2ccc(Cl)nc2Cl)S1(=O)=O [Inhibitor 2, 7-(2,6-dichloro-3-pyridyl)-5,5-dimethyl-6,6-dioxo-thiopyrano[4,3-b]pyridin-8-ol]	1.1	6	5	15	4	5	17	–	–	–	–	–	–
Cc1c(C(=O)c2cnn(C)c2O)ccc(S(C)(=O)=O)c1C1=NOCC1 [Topramezone, reference compound]	–	–	–	–	–	–	–	7	18	24	7	18	28
CC1=NOC(c2c(Cl)ccc(C3=C(O)c4ncccc4C(C)(C)S3(=O)=O)c2Cl)C1 (centres unmarked) [Inhibitor 1, 7-[2,4-dichloro-3-(3-methyl-4,5-dihydroisoxazol-5-yl)phenyl]-5,5-dimethyl-6,6-dioxo-thiopyrano[4,3-b]pyridin-8-ol]	2.1	–	–	–	–	–	–	–	–	–	–	–	–
